Measured values reported in ChEMBL document CHEMBL1201862, “PubChem BioAssay data set” (2004).
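The compound was tested at five concentrations on cells cultured in 96-well plates, with a 48-hour exposure period. The concentration for 50% growth inhibition is given as GI50.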 Active and inactive are the calls of the source. No stated cut-off is given here; in the data, active = GI50 up to about 1.1 µM and inactive = higher.

Assays:
Experiment in all cases: growth of human tumour cells (NCI), 48 h
[1] = test system: DMS-114
[2] = test system: DMS-273
[3] = test system: HOP-18
[4] = test system: KM-20L2
[5] = test system: LXFL 529
[6] = test system: M19-MEL
[7] = test system: SNB-78
[8] = test system: XF498
[9] = test system: RXF 631

Measured: GI50

O=C1c2ccccc2C(=O)c2c1oc1cc(O)c(Cl)cc21
active: [6] 0.177 µM
inactive: [1] 2.23 µM | [2] 2.41 µM | [3] 1.73 µM | [4] 2.67 µM | [5] 20.5 µM | [7] 5.69 µM | [8] 7.41 µM

O=[N+]([O-])c1ccc(C2CC(c3ccc(NCc4nc5ccccc5[nH]4)cc3)=NO2)cc1 (stereo unspecified)
inactive: [1] 11.4 µM | [2] 32.1 µM | [3] > 100 µM | [5] 16.4 µM | [6] 33.7 µM

O=C1/C(=C/c2ccccc2)CN(C(=O)OCc2ccccc2)C/C1=C\c1ccccc1
inactive: [1] 11.2 µM | [2] 5 µM | [3] > 10 µM | [4] 11.1 µM | [6] 5.87 µM | [9] 16.9 µM | [7] 14.8 µM | [8] 16.6 µM

CN(C)C(=O)OC(Cn1cncn1)c1ccc(Cl)cc1Cl (stereo unspecified)
inactive: [1] > 100 µM | [2] > 100 µM | [3] > 100 µM | [4] > 100 µM | [5] > 100 µM | [6] > 100 µM | [7] > 100 µM

CC(C)/C=C1\CCC(CN2CCOCC2)C1=O (stereo unspecified)
inactive: [3] 17.7 µM | [4] 20.1 µM | [5] 2.74 µM | [6] 23.4 µM | [7] 12.5 µM | [8] 18.3 µM

COc1ccc(/C=C2\CN(C)Cc3c2nc(N)nc3-c2ccc(OC)cc2)cc1
inactive: [1] 65.3 µM | [2] > 100 µM | [4] 82 µM | [5] 49.5 µM | [6] 95.3 µM | [7] > 100 µM | [8] 35 µM

CCCCCCCCCCCCCC(=S)N/C=C/OC
inactive: [1] 21.7 µM | [3] 35.8 µM | [4] 40.1 µM | [5] 38.3 µM | [6] 31.1 µM | [7] 48 µM | [8] 24.3 µM

NC1N=Nc2ccccc21 (stereo unspecified)
inactive: [1] > 100 µM | [2] > 100 µM | [4] > 100 µM | [5] > 100 µM | [6] > 100 µM | [9] > 100 µM | [8] > 100 µM

COc1ccc(Br)c2c1CC(C(=O)O)CC2 (stereo unspecified)
inactive: [1] > 100 µM | [2] > 100 µM | [3] > 100 µM | [4] > 100 µM | [5] > 100 µM | [7] > 100 µM | [8] > 100 µM

O=S(=O)(c1ccccc1)C1CN2OC1(S(=O)(=O)c1ccccc1)CC2c1ccc(Br)cc1 (stereo unspecified)
inactive: [1] > 100 µM | [2] > 100 µM | [4] > 100 µM | [6] > 100 µM | [9] 26.5 µM | [8] 18.6 µM

COc1ccc2c(c1OC)C(=O)C2
inactive: [1] > 100 µM | [2] > 100 µM | [3] > 100 µM | [4] > 100 µM | [5] > 100 µM | [6] > 100 µM | [8] > 100 µM

N#CCCN(c1ccc(/C=N/c2ccccc2)cc1)S(=O)(=O)c1ccccc1
active: [8] 0.834 µM
inactive: [1] > 100 µM | [2] > 100 µM | [5] 4.44 µM | [6] > 100 µM | [7] > 100 µM

CC(=O)N/N=C1\CC(C)(C)C2CCC1C2 (stereo unspecified)
inactive: [1] > 100 µM | [2] > 100 µM | [5] > 100 µM | [6] > 100 µM | [7] > 100 µM | [8] > 100 µM

COC1(C)CC2N(C(=O)c3ccccc3)N=C(c3ccccc3)CC2(C)O1 (stereo unspecified)
inactive: [1] > 100 µM | [4] > 100 µM | [5] > 100 µM | [9] > 100 µM | [8] > 100 µM

CCOC(=O)/N=C(\N)SCc1ccccc1
inactive: [1] > 100 µM | [2] > 100 µM | [3] > 100 µM | [4] > 100 µM | [5] > 100 µM | [6] > 100 µM | [9] > 100 µM | [7] > 100 µM | [8] > 100 µM

O=C1C(Cl)C(c2ccc(O)cc2)N1n1cnc2ccccc2c1=O (stereo unspecified)
inactive: [1] 28.2 µM | [2] 39.8 µM | [3] 49.4 µM | [4] 58.9 µM | [5] 16.7 µM | [6] 22.2 µM | [7] 49 µM | [8] 33.5 µM

CC(=O)OC1COC(N2C(=O)C(=O)c3c(C)cc(Cl)nc32)C(OC(C)=O)C1OC(C)=O (stereo unspecified)
inactive: [1] > 100 µM | [2] > 100 µM | [3] > 100 µM | [4] > 100 µM | [5] > 100 µM | [6] > 100 µM | [7] > 100 µM | [8] > 100 µM

CCCCCCCCCCCOC(=S)NC(C)C
inactive: [1] 17.8 µM | [2] 18.3 µM | [3] 27.5 µM | [4] 16 µM | [5] 25.8 µM | [6] 24.9 µM | [7] 33.9 µM | [8] 16.7 µM

Cc1nn(-c2nc3ccccc3s2)c2c1C(=O)c1ccccc1-2
inactive: [1] > 100 µM | [2] > 100 µM | [3] > 100 µM | [4] > 100 µM | [5] 74.8 µM | [6] > 100 µM | [7] > 100 µM

C[Si](C)(C)c1ccc(CC2(Cc3ccc([Si](C)(C)C)cc3)CCNC2)cc1
inactive: [1] 2.13 µM | [2] 1.94 µM | [3] 2.77 µM | [4] 1.9 µM | [5] 2.18 µM | [6] 1.95 µM | [9] 2.32 µM | [7] 3.13 µM

COC1/C=C/O[C@@]2(C)Oc3c(C)c(O)c4c(O)c(cc(O)c4c3C2=O)NC(=O)/C(C)=C\C=C\[C@H](C)C(O)[C@@H](C)[C@@H](O)[C@@H](C)[C@H](OC(C)=O)[C@@H]1C (stereo partly specified)
inactive: [1] 7.91 µM | [2] 17.9 µM | [3] 17.7 µM | [4] 13.3 µM | [6] 12.1 µM | [7] 32.8 µM | [8] 14.8 µM

COc1ccc(C2Oc3ccc(O)cc3[C@@H]2C)cc1OC (stereo partly specified)
inactive: [1] 59.8 µM | [2] > 100 µM | [3] > 100 µM | [4] > 100 µM | [5] 71 µM | [6] > 100 µM | [7] > 100 µM | [8] > 100 µM

NC(=O)N1N=C2c3ccccc3CC[C@@H]2C1c1ccccc1 (stereo partly specified)
inactive: [1] 77.1 µM | [2] > 100 µM | [4] > 100 µM | [5] > 100 µM | [6] > 100 µM | [7] > 100 µM

COc1ccc(/C=C/c2cc(OC)c(O[Si](C)(C)C(C)(C)C)c(OC)c2)cc1
inactive: [1] 14 µM | [2] 67 µM | [4] > 100 µM | [5] > 100 µM | [6] 46.5 µM | [9] 73.1 µM | [8] > 100 µM

CCCC1(CC(=O)O)OCCc2c1[nH]c1ccccc21 (stereo unspecified) [PRODOLIC ACID]
inactive: [1] > 100 µM | [2] > 100 µM | [3] > 100 µM | [4] > 100 µM | [5] > 100 µM | [6] > 100 µM | [7] > 100 µM | [8] > 100 µM
